Series [1] is described as follows: Cytotoxicity against human HepG2.2.15 cells by MTT assay. Format: cell-based, HepG2 2.2.15. In general terms: Tetrazolium assays rely on reduction of a dye to a coloured formazan, in cell work by metabolically active cells.
In series [2] the test system is Hepatitis B virus. The series is described as follows: Antiviral activity against HBV infected in human HepG2.2.15 cells assessed as inhibition of hepatitis B surface antigen secretion by ELISA. Conditions: HepG2 2.2.15. It counts as functional, organism-based. In general terms: In an ELISA, binding on a coated surface is turned into a signal by an enzyme label.
In series [3] the test system is Hepatitis B virus. The series is described as follows: Antiviral activity against HBV infected in human HepG2.2.15 cells assessed as inhibition of hepatitis B e antigen secretion by ELISA. Format: functional, organism-based. Particulars: HepG2 2.2.15.
For series [4], the system named is Hepatitis B virus. The series is described as follows: Antiviral activity against HBV infected in human HepG2.2.15 cells assessed as inhibition of DNA replication. It counts as functional, organism-based. Particulars: HepG2 2.2.15.
Series [5] is described as follows: Selectivity index, ratio of CC50 for human HepG2.2.15 cells to IC50 for HBV infected in human HepG2.2.15 cells assessed as inhibition of DNA replication. It counts as functional.

As usually defined, the CC50 is the concentration giving 50% cytotoxicity. As a reminder, the IC50 is the concentration that inhibits the measured activity by half. In turn, `C=C1CC[C@@H]2[C@](C)(COC(=O)CCCC(=O)O)[C@H](OC(=O)CCCC(=O)O)CC[C@@]2(C)[C@@H]1/C=C/C1=CCOC1=O` registered a CC50 in series [1] of more than 1710 µM. The IC50 is more than 1710 µM in series [2], more than 1710 µM in series [3] and more than 429 µM in series [4].
Turning to `C=C1CC[C@@H]2[C@](C)(COC(=O)c3ccco3)[C@H](O)CC[C@@]2(C)[C@@H]1C/C=C1\C=COC1=O`, the CC50 in series [1] was more than 2150 µM. For the same compound, the half-inhibitory concentration (IC50) in series [3] was more than 949 µM; in series [4] it was 21.4 µM. In addition, in series [5], the “Ratio CC50/IC50” value is recorded as more than 100.5.
Turning to `C=C1CC[C@@H]2[C@](C)(COC(=O)c3cccnc3)[C@H](O)CC[C@@]2(C)[C@@H]1C/C=C1\C=COC1=O`, half-maximal cytotoxicity in series [1] (CC50) was put at 2050 µM. The IC50 in series [2] was more than 1140 µM; in series [3], more than 974 µM; in series [4], 16.3 µM. Moreover, in series [5], the “Ratio CC50/IC50” value was determined as 126.
On the same counts, the results for `C=C1CC[C@@H]2[C@](C)(CO)[C@H](OC(=O)c3ccccc3)CC[C@@]2(C)[C@@H]1C/C=C1\C=COC1=O` are 103 µM, 877 µM, 118 µM, 21.6 µM and 4.8.
In turn, `C=C1CC[C@H]2[C@@](C)(CCC(=O)[C@@]2(C)C=O)[C@@H]1/C=C/C1=CCOC1=O` showed a CC50 in series [1] of 275 µM. The IC50 in series [2] stood at 394 µM; in series [4], 263 µM. Besides, the “Ratio CC50/IC50” value in series [5] was 1.1.
`C=C1CC[C@@H]2[C@](C)(COC(=O)/C=C/c3cc(OC)c(OC)c(OC)c3)[C@H](O)CC[C@@]2(C)[C@@H]1C/C=C1\C=COC1=O` returned a CC50 in series [1] of 325 µM. In addition, the IC50 in series [4] was determined as 22.3 µM. In addition, in series [5], the “Ratio CC50/IC50” value is recorded as 14.6.
On to `C=C1CC[C@@H]2[C@](C)(CO)[C@H](OC(=O)CCCC)CC[C@@]2(C)[C@@H]1C/C=C1\C=COC1=O`, for which, in series [1], the 50% cytotoxic concentration (CC50) was determined as 126 µM. Besides, the 50% inhibitory concentration (IC50) in series [2] was 625 µM; in series [3], 208 µM; in series [4] it was 69.8 µM. Besides, the “Ratio CC50/IC50” value in series [5] is 1.82.
On to `C=C1CC[C@@H]2[C@](C)(COC(=O)/C=C/c3ccccc3)[C@H](O)CC[C@@]2(C)[C@@H]1C/C=C1\C=COC1=O`, for which, in series [1], half-maximal cytotoxicity (CC50) was put at 271 µM. The IC50 in series [2] was 210 µM; in series [3], 516 µM; in series [4], 46.6 µM. In addition, the “Ratio CC50/IC50” value in series [5] was determined as 5.8.
For `C=C1CC[C@@H]2[C@](C)(COC(=O)c3ccccc3)[C@H](O)CC[C@@]2(C)[C@@H]1C/C=C1\C=COC1=O` the same measures were 82 µM, 880 µM, 123 µM, 20.6 µM and 4.
`C=C1CC[C@@H]2[C@](C)(COC(=O)c3cccnc3)[C@H](OC(=O)c3cccnc3)CC[C@@]2(C)[C@@H]1/C=C/C1=CCOC1=O` had a 50% cytotoxic concentration (CC50) in series [1] of more than 1920 µM. The IC50 was more than 1920 µM in series [2], more than 1920 µM in series [3] and more than 664 µM in series [4].
In series [1], `C=C1CC[C@@H]2[C@](C)(CO)[C@H](O)CC[C@@]2(C)[C@@H]1C/C=C(/C(=O)O)[C@H](O)CO` had a CC50 of 182 µM. In addition, the IC50 in series [4] came to 23.2 µM. In series [5], the “Ratio CC50/IC50” value worked out at 7.8.
Regarding `C=C1CC[C@@H]2[C@](C)(COC(=O)CCCC)[C@H](OC(=O)CCCC)CC[C@@]2(C)[C@@H]1C/C=C1\C=COC1=O`, half-maximal cytotoxicity in series [1] (CC50) was put at 757 µM. Besides, the half-inhibitory concentration (IC50) was 1010 µM in series [2], 1390 µM in series [3] and 455 µM in series [4].
For `C=C1CC[C@@H]2[C@](C)(COC(=O)/C=C/c3cccc(OC)c3)[C@H](O)CC[C@@]2(C)[C@@H]1/C=C/C1=CCOC1=O` the same measures were more than 1970 µM, more than 1970 µM, 1480 µM and more than 513 µM.
As to `C=C1CC[C@@H]2[C@](C)(CO)[C@H](O)CC[C@@]2(C)[C@@H]1/C=C/C1=CC(C(C)(C)O)OC1=O` (some centres not stated), in series [1], the half-maximal cytotoxic concentration (CC50) was 122 µM. The IC50 turned out to be 562 µM in series [3] and 394 µM in series [4].
Regarding `C=C1CC[C@@H]2[C@](C)(COC(=O)c3ccccc3C(=O)O)[C@H](OC(=O)c3ccccc3C(=O)O)CC[C@@]2(C)[C@@H]1/C=C/C1=CCOC1=O`, in series [1], the CC50 is more than 1620 µM. Besides, the IC50 in series [4] amounted to 104 µM. Further, the “Ratio CC50/IC50” value in series [5] was more than 15.6.
Consider `C=C1CC[C@@H]2[C@](C)(CO)[C@H](OC(=O)c3ccco3)CC[C@@]2(C)[C@@H]1C/C=C1\C=COC1=O`, for which the CC50 in series [1] worked out at 42 µM. Further, the results for the IC50 in series [2], in series [3] and in series [4] were 777 µM, 586 µM and 25.2 µM, respectively. Moreover, the “Ratio CC50/IC50” value in series [5] is recorded as 1.7.
Consider `C=C1CC[C@@H]2[C@](C)(COC(=O)CCC(=O)O)[C@H](OC(=O)CCC(=O)O)CC[C@@]2(C)[C@@H]1C/C=C1\C=COC1=O`, for which the CC50 in series [1] turned out to be 32 µM. Further, the figures for the IC50 in series [2], in series [3] and in series [4] were 1160 µM, 243 µM and 47.6 µM, respectively.
`C=C1CC[C@H]2[C@@](C)(CCC(=O)[C@@]2(C)C=O)[C@@H]1C/C=C1/C(=O)OC[C@H]1O` came in with a cytotoxic concentration (CC50) in series [1] of 155 µM. Further, the results for the half-inhibitory concentration (IC50) in series [2], in series [3] and in series [4] were 951 µM, 815 µM and 51.3 µM, respectively. For the same compound, the “Ratio CC50/IC50” value in series [5] is 3.
For `C=C1CC[C@@H]2[C@](C)(COC(C)=O)[C@H](O)CC[C@@]2(C)[C@@H]1/C=C/C1=CCOC1=O` the same measures were 225 µM, 565 µM, 2230 µM, 69.5 µM and 3.2.
On the same counts, the results for `C=C1CC[C@@H]2[C@](C)(CO)[C@H](OC(=O)/C=C/c3cc(OC)c(OC)c(OC)c3)CC[C@@]2(C)[C@@H]1C/C=C1\C=COC1=O` are 211 µM, 753 µM, 518 µM, 53.1 µM and 3.
`C=C1CC[C@@H]2[C@](C)(COC(=O)/C=C/c3cc(OC)c(OC)c(OC)c3)[C@H](OC(=O)/C=C/c3cc(OC)c(OC)c(OC)c3)CC[C@@]2(C)[C@@H]1C/C=C1\C=COC1=O`: the CC50 in series [1] is more than 1830 µM. Also, the results for the half-maximal inhibitory concentration (IC50) in series [2], in series [3] and in series [4] were more than 1830 µM, more than 253 µM and more than 458 µM, respectively.
Take `C=C1CC[C@@H]2[C@](C)(COC(=O)c3ccco3)[C@H](OC(=O)c3ccco3)CC[C@@]2(C)[C@@H]1/C=C/C1=CCOC1=O`: in series [1], half-maximal cytotoxicity (CC50) was put at 1110 µM. In addition, the IC50 was 1410 µM in series [2], 1860 µM in series [3] and 242 µM in series [4]. Besides, the “Ratio CC50/IC50” value in series [5] was 4.6.
In the case of `C=C1CC[C@@H]2[C@](C)(COC(C)=O)[C@H](OC(C)=O)CC[C@@]2(C)[C@@H]1/C=C/C1=CCOC1=O`, it took 757 µM to reach half-maximal cytotoxicity in series [1] (CC50). Also, the IC50 in series [2] worked out at 1010 µM; in series [3], 1390 µM; in series [4], 455 µM.
On the same counts, the results for `C=C1CC[C@@H]2[C@](C)(COC(=O)COCC(=O)O)[C@H](OC(=O)COCC(=O)O)CC[C@@]2(C)[C@@H]1/C=C/C1=CCOC1=O` are more than 1930 µM, more than 1930 µM, more than 1930 µM and more than 483 µM.

These data come from ChEMBL document CHEMBL3259753, “Synthesis, structure-activity relationships and biological evaluation of dehydroandrographolide and andrographolide derivatives as novel anti-hepatitis B virus agents” (Bioorg Med Chem Lett, 2014).
